Experiments:
Primary Neurons = experiment: HCS neurite outgrowth assay (High Content Screening with Primary Neurons); assay type: cell-based; details: Primary neuron
[1] = test system: neurons from hippocampi of E18 rat embryos; experiment: Neurite growth length (% NTL) in cultured E18 rat hippocampal neurons, 9-point dose response, 48 hours; assay type: cell-based; details: Rattus norvegicus, Neuron, 48 h; for activity at 0.078 µM: 78 nM; for activity at 0.156 µM: 156 nM; for activity at 0.312 µM: 312 nM; for activity at 0.625 µM: 625 nM
Method: PRE-COATING CULTURE PLATES: On the day before the experiment, 96-well plates were pre-coated by plating 50 μl of Poly-D-lysine solution (PDL, 0.5 mg/mL) in each well. The next morning, the plates were washed four or five times with HBSS or PBS (150 μl/rinse), then left in buffer until cell plating
PREPARING THE CELLS: A timed pregnant rat carrying E18 embryos was euthanized using an IACUC approved method. In a laminar flow hood, the embryos were removed and placed in a petri dish containing Hank's Balanced Salt Solution (HBSS) with 20 mM HEPES, pH 7.3. Pup brains were dissected (see Meberg et al., 2003) and hippocampi were collected in 15 mL a conical tube containing Hibernate E with SM1 (2% v/v).
Dissociation media was prepared by combining 4.5 mL of Hibernate E (without SM1) with 0.5 mL of trypsin and 100 μl of DNAse solution. The medium over the hippocampi was carefully removed and replaced with dissociation solution, then incubated at 37° C. for 15-20 minutes, occasionally swirling the tube.
Using flame polished cotton plugged Pasteur pipettes, the dissociation media was removed, and then 5 mL of Hibernate E containing SM1 were added. The tube was swirled to thoroughly wash the tissue. The tissue was allowed to settle to the bottom of the tube, and the rinse solution was carefully removed. This step was repeated 5 times to dilute out trypsin and DNAse and remove any debris from lysed cells.
The final rinse media was removed from the tube and 1 pipette-full (1-2 mL) of Hibernate E with SM1 was added. Using the flame-polished Pasteur pipette (pre-wetted with rinse media), the tube was triturated until all cells had dissociated and no visible chunks of tissue remained. Fewer than ten triturations were typically performed. The volume was adjusted to 8-12 mL using Hibernate E containing SM1, the well was mixed and cell concentration was determined.
PLATING: The cells were diluted in culture media (NbActiv4 Cell-culture media) to a final concentration of 10,000 cells/mL. The HBSS was aspirated from PDL coated plates, and 150 μL of cell solution was loaded in the middle 48 wells at 1500 cells per well. Water was loaded in the outer wells to decrease evaporation from edge wells. Cells were allowed to adhere for 2 hours in tissue culture incubator prior to treatment.
TREATMENT: Compounds were diluted to various concentrations to provide 9 dose response concentrations of 20 μM, 10 μM, 5, μM, 2.5 μM, 1.25 μM, 0.625 μM, 0.3125 μM, 0.15625 μM, and 0.078125 μM. The plates were cultured for 48 hours, exposed to the compound at the various dose response concentrations.
FIXING THE CULTURES: The culture medium was removed from the plates and immediately replaced with 100-200 μl of warm (37° C.) 4% paraformaldehyde (PFA) solution in phosphate-buffered saline (PBS). The cells were fixed for 15-20 minutes at room temperature, and then rinsed with PBS (200 μl/well×3).
STAINING AND IMAGING: The PBS was removed and replaced with 100 μl of blocking/permeabilization buffer (PBS, 0.2% fish gelatin, 0.03% Triton X-100, 0.02% NaN3), then incubated overnight at 4° C. To this was added 100 μl of primary antibody solution (mouse anti-Beta III tubulin in blocking buffer) and incubate overnight at 4° C. The wells were rinsed with PBS (200 μl×3), which was then removed and replaced with 100 μl of secondary antibody solution (Goat anti-mouse Alexa 488, 10 μg/ml Hoechst 33342, 0.2% fish gelatin, 0.02% azide, in PBS). The plate was shaken gently on a rotating shaker for 2 hours, then rinsed with PBS (200 μl×5).
The plate was imaged using a Cellomics ArrayScan VTI in 2 different channels for nuclear staining (Hoechst) and cell body/neurite staining (βIII-tubulin). Typically, nine fields per well were imaged with a 5× objective and automatically traced by the Neuronal Profiling Bioapplication. To get reproducible results, at least 200-300 valid neurons were measured per condition. […]

O=C(Nc1ccncc1NC(=O)c1ccncc1)c1ccc(C(=O)c2ccccc2)cc1 [Example A3, N-[4-(4-benzoylbenzamido)pyridin-3-yl]pyridine-4-carboxamide]
EC50 (Primary Neurons): 0.798 µM | activity at 0.078 µM [1]: 98.3% | activity at 0.156 µM [1]: 99.9% | activity at 0.312 µM [1]: 96.3% | activity at 0.625 µM [1]: 92.6% | activity at 1.25 µM [1]: 96.7% | activity at 2.5 µM [1]: 95.1% | activity at 5 µM [1]: 93.6% | activity at 10 µM [1]: 92.9% | activity at 20 µM [1]: 96.6%

COc1ccc(OC)c(C(=O)c2ccc(C(=O)Nc3ccccc3NC(=O)c3ccncc3)cc2)c1F [Example A4, N-{2-[4-(2-fluoro-3,6-dimethoxybenzoyl)benzamido]phenyl}pyridine-4-carboxamide]
EC50 (Primary Neurons): 9.64 µM | activity at 0.078 µM [1]: 102% | activity at 0.156 µM [1]: 99% | activity at 0.312 µM [1]: 110% | activity at 0.625 µM [1]: 93.2% | activity at 1.25 µM [1]: 105% | activity at 2.5 µM [1]: 114% | activity at 5 µM [1]: 114% | activity at 10 µM [1]: 132% | activity at 20 µM [1]: 161%

COc1ccc(O)c(C(=O)c2ccc(C(=O)Nc3ccccc3NC(=O)c3ccncc3)cc2)c1F [Example A5, N-{2-[4-(2-fluoro-6-hydroxy-3-methoxybenzoyl)benzamido]phenyl}pyridine-4-carboxamide]
EC50 (Primary Neurons): 10.4 µM | activity at 0.078 µM [1]: 97.8% | activity at 0.156 µM [1]: 102% | activity at 0.312 µM [1]: 97.2% | activity at 0.625 µM [1]: 102% | activity at 1.25 µM [1]: 102% | activity at 2.5 µM [1]: 113% | activity at 5 µM [1]: 116% | activity at 10 µM [1]: 124% | activity at 20 µM [1]: 132%

O=C(Nc1ccccc1NC(=O)c1ccc(C(=O)c2ccccc2)cc1)c1ccncc1 [Example A6, N-[2-(4-benzoylbenzamido)phenyl]pyridine-4-carboxamide]
EC50 (Primary Neurons): 1.67 µM | activity at 0.078 µM [1]: 94.7% | activity at 0.156 µM [1]: 106% | activity at 0.312 µM [1]: 83% | activity at 0.625 µM [1]: 95.4% | activity at 1.25 µM [1]: 94.1% | activity at 2.5 µM [1]: 92.9% | activity at 5 µM [1]: 105% | activity at 10 µM [1]: 107% | activity at 20 µM [1]: 121%

O=C(c1ccccc1)c1ccc(C(=O)N2CCN(C(=O)c3ccncc3)CC2)cc1 [Example A7, 1-(4-benzoylbenzoyl)-4-(pyridine-4-carbonyl)piperazine]
EC50 (Primary Neurons): 1.67 µM | activity at 0.078 µM [1]: 97% | activity at 0.156 µM [1]: 94.8% | activity at 0.312 µM [1]: 95.7% | activity at 0.625 µM [1]: 91.2% | activity at 1.25 µM [1]: 90.8% | activity at 2.5 µM [1]: 88.3% | activity at 5 µM [1]: 92% | activity at 10 µM [1]: 86.4% | activity at 20 µM [1]: 91.8%

COc1ccc(OC)c(C(=O)c2ccc(C(=O)N3CCN(C(=O)c4ccncc4)CC3)cc2)c1F [Example A8, 1-[4-(2-fluoro-3,6-dimethoxybenzoyl)benzoyl]-4-(pyridine-4-carbonyl)piperazine]
EC50 (Primary Neurons): > 20 µM | activity at 0.078 µM [1]: 99.2% | activity at 0.156 µM [1]: 98.7% | activity at 0.312 µM [1]: 96.4% | activity at 0.625 µM [1]: 99% | activity at 1.25 µM [1]: 92.9% | activity at 2.5 µM [1]: 94.4% | activity at 5 µM [1]: 93.8% | activity at 10 µM [1]: 93.2% | activity at 20 µM [1]: 81.6%

COc1ccc(O)c(C(=O)c2ccc(C(=O)N3CCN(C(=O)c4ccncc4)CC3)cc2)c1F [Example A9, 3-fluoro-4-methoxy-2-{4-[4-(pyridine-4-carbonyl)piperazine-1-carbonyl]benzoyl}phenol]
EC50 (Primary Neurons): 4.92 µM | activity at 0.078 µM [1]: 94.5% | activity at 0.156 µM [1]: 91.5% | activity at 0.312 µM [1]: 90.7% | activity at 0.625 µM [1]: 96.6% | activity at 1.25 µM [1]: 88% | activity at 2.5 µM [1]: 98.9% | activity at 5 µM [1]: 98.3% | activity at 10 µM [1]: 89.6% | activity at 20 µM [1]: 89.1%

O=C(N[C@@H]1c2ccccc2C[C@H]1NC(=O)c1ccncc1)c1ccc(C(=O)c2ccccc2)cc1 [Example A11, N-[(1R,2R)-1-(4-benzoylbenzamido)-2,3-dihydro-1H-inden-2-yl]pyridine-4-carboxamide]
EC50 (Primary Neurons): 5.58 µM | activity at 0.078 µM [1]: 104% | activity at 0.156 µM [1]: 102% | activity at 0.312 µM [1]: 87.4% | activity at 0.625 µM [1]: 93.8% | activity at 1.25 µM [1]: 91.7% | activity at 2.5 µM [1]: 98.5% | activity at 5 µM [1]: 94.6% | activity at 10 µM [1]: 110% | activity at 20 µM [1]: 110%

COc1ccc(OC)c(C(=O)c2ccc(C(=O)N[C@@H]3c4ccccc4C[C@H]3NC(=O)c3ccncc3)cc2)c1F [Example A12, N-[(1R,2R)-1-[4-(2-fluoro-3,6-dimethoxybenzoyl)benzamido]-2,3-dihydro-1H-inden-2-yl]pyridine-4-carboxamide]
EC50 (Primary Neurons): > 20 µM | activity at 0.078 µM [1]: 96.6% | activity at 0.156 µM [1]: 90.7% | activity at 0.312 µM [1]: 91.2% | activity at 0.625 µM [1]: 93.1% | activity at 1.25 µM [1]: 90.6% | activity at 2.5 µM [1]: 91% | activity at 5 µM [1]: 106% | activity at 10 µM [1]: 98.6% | activity at 20 µM [1]: 119%

COc1ccc(O)c(C(=O)c2ccc(C(=O)N[C@@H]3c4ccccc4C[C@H]3NC(=O)c3ccncc3)cc2)c1F [Example A14, N-[(1R,2R)-1-[4-(2-fluoro-6-hydroxy-3-methoxybenzoyl)benzamido]-2,3-dihydro-1H-inden-2-yl]pyridine-4-carboxamide]
EC50 (Primary Neurons): > 20 µM | activity at 0.078 µM [1]: 105% | activity at 0.156 µM [1]: 111% | activity at 0.312 µM [1]: 118% | activity at 0.625 µM [1]: 119% | activity at 1.25 µM [1]: 127% | activity at 2.5 µM [1]: 126% | activity at 5 µM [1]: 140% | activity at 10 µM [1]: 154% | activity at 20 µM [1]: 175%

O=C(N[C@@H]1CCC[C@H]1NC(=O)c1ccc(C(=O)c2ccccc2)cc1)c1ccncc1 [Example A15, N-[(1R,2R)-2-(4-benzoylbenzamido)cyclopentyl]pyridine-4-carboxamide]
EC50 (Primary Neurons): 7.84 µM | activity at 0.078 µM [1]: 98.5% | activity at 0.156 µM [1]: 106% | activity at 0.312 µM [1]: 111% | activity at 0.625 µM [1]: 114% | activity at 1.25 µM [1]: 110% | activity at 2.5 µM [1]: 107% | activity at 5 µM [1]: 110% | activity at 10 µM [1]: 122% | activity at 20 µM [1]: 136%

COc1ccc(OC)c(C(=O)c2ccc(C(=O)N[C@@H]3CCC[C@H]3NC(=O)c3ccncc3)cc2)c1F [Example A17, N-[(1R,2R)-2-[4-(2-fluoro-3,6-dimethoxybenzoyl)benzamido]cyclopentyl] pyridine-4-carboxamide]
EC50 (Primary Neurons): 1.83 µM | activity at 0.078 µM [1]: 99.7% | activity at 0.156 µM [1]: 100% | activity at 0.312 µM [1]: 104% | activity at 0.625 µM [1]: 99.8% | activity at 1.25 µM [1]: 103% | activity at 2.5 µM [1]: 113% | activity at 5 µM [1]: 112% | activity at 10 µM [1]: 121% | activity at 20 µM [1]: 119%

COc1ccc(O)c(C(=O)c2ccc(C(=O)N[C@@H]3CCC[C@H]3NC(=O)c3ccncc3)cc2)c1F [Example A18, N-[(1R,2R)-2-[4-(2-fluoro-6-hydroxy-3-methoxybenzoyl)benzamido]cyclopentyl] pyridine-4-carboxamide]
EC50 (Primary Neurons): 6.61 µM | activity at 0.078 µM [1]: 113% | activity at 0.156 µM [1]: 115% | activity at 0.312 µM [1]: 119% | activity at 0.625 µM [1]: 120% | activity at 1.25 µM [1]: 121% | activity at 2.5 µM [1]: 133% | activity at 5 µM [1]: 130% | activity at 10 µM [1]: 131% | activity at 20 µM [1]: 140%

Reference: patent publication US11926613B2, “Kinase inhibitors for the treatment of central and peripheral nervous system disorders” (UNIVERSITY OF MIAMI, priority 2017, dated 2024)
